We go through 2 molecules from BindingDB's records for doi:10.1016/j.ejmech.2019.111807 (Universitat De Barcelona, 2020).

The data set can be described thus: Bioactivation in CYP1A1 (unknown origin) transfected CHO cells assessed as CYP1A1-mediated drug activation by measuring reduction in cell viability.

The structures appear in SMILES notation.

In the case of `CCCCCCc1c2c(c(C)c3c1C(=O)OC3)Oc1ccccc1O2`, the IC50 (usually the midpoint of a concentration-inhibition curve) was 2600 nM.

In the case of `CCCCc1c2c(c(C)c3c1C(=O)OC3)Oc1ccccc1O2`, the concentration for half-maximal inhibition (IC50) was determined as 400 nM.
